Data taken from patent publication US20020045780A1, “Biologically active spermidine analogues, pharmaceutical compositions and methods of treatment” (priority 1997, published 2002).
Read-outs that look alike come from different tables or passages of the source.

Legend:
[1] = target: polyamine transport apparatus; conditions: cited from earlier work; for Ki: inhibition of spermidine transport, L1210, read-out: Ki, corresponding tetraamine (in parentheses)
mice [2] = conditions: cited from earlier work
L1210 cells [3] = conditions: cited from earlier work
[4] = Acute toxicity in mice (single i.p. dose); assay type: in vivo; conditions: female, CD-1, mouse, in vivo, ip
Experimental: (§1) In the current study, the acute toxicity of six analogues and the chronic toxicity of two triamines were measured (Table 7). The value of all polyamine LD50s are shown in both mg/kg and mmol/kg for comparison. […] The animals were scored two hours after administration of the drug. It is clear that the acute LD50s for triamine analogues are approximately twice the acute LD50s for the corresponding tetraamine analogues.
(§2) Acute and chronic toxicities were assessed in 10-12 week old CD-1 female mice from Harlan Sprague-Dawley. For acute toxicities, the polyamine analogues were administered in a single i.p. injection to groups of five or six animals at each dose. The animals were scored two hours after administration of the dose. All survivors were further observed for 10 days to assess late onset of toxicity from the single acute dose. In the chronic toxicity regimen, mice were administered polyamine analogue in three i.p. doses per day (t.i.d.) for six days, for a total of eighteen doses per animal. Appetite, weight and overall appearance were monitored daily. […] At least three test groups of 5-6 animals each, representing three different dose levels, were evaluated for each analogue tested. These dose levels were chosen so that at least two groups presented with lethalities, one with a high fraction of lethalities (>0.50, but <1.00).

mice [5] = assay: Acute toxicity in mice (single i.p. dose); assay type: in vivo
Experimental: as §1, §2

L1210 cells [6] = conditions: 48 hours, cited from earlier work; for Put, corresponding tetraamine (in parentheses) / Spd, corresponding tetraamine (in parentheses) / Spm, corresponding tetraamine (in parentheses): % of untreated control; for Analogue, corresponding tetraamine (in parentheses): intracellular amount
[7] = tested on: spermidine/spermine acetyltransferase (SSAT); conditions: L1210, 2 μM at 48 hours (tetraamine analogues); cited from earlier work
[8] = tested on: ornithine decarboxylase (ODC); conditions: cited from earlier work; for ODC activity, corresponding tetraamine (in parentheses): L1210, 1 μM at 4 hours
[9] = tested on: S-adenosylmethionine decarboxylase (AdoMetDC); conditions: cited from earlier work; for AdoMetDC activity, corresponding tetraamine (in parentheses): L1210, 1 μM at 6 hours
SSAT = conditions: MALME-3 cells; cited from earlier work
L1210 cells [10] = assay: Metabolic transformation of polyamine analogues by L1210 cells; assay type: in vitro ADME, murine; conditions: 48 hours
Experimental: The cells were washed twice with cold RPMI-1640, and the pellet was treated with 0.6 N HClO4 (1 ml/10^7 cells). Polyamine contents of the perchloric acid extracts were quantitated by HPLC of the DANSYL derivatives [Bergeron et al, J. Med. Chem., Vol. 37, supra].

[11] = tested on: ornithine decarboxylase (ODC); assay: ODC activity in treated L1210 cells; assay type: cell-based, murine; conditions: L1210, 1 μM at 4 hours
Method in brief: (§3)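 L1210 cells treated with triamines; ODC activity measured at 4 h and AdoMetDC at 6 h as ^14CO2 released from [^14C]-carboxyl-labeled L-ornithine (ODC) or S-adenosyl-L-methionine (AdoMetDC). Untreated cells served as controls and DEHSPM-treated cells as positive controls.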

[12] = tested on: polyamine transport apparatus; assay: Competitive uptake determination: inhibition of [3H]spermidine transport into L1210 cells; assay type: cell-based, murine; conditions: analogue inhibition of spermidine transport
Method in brief: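 Analogues competed with [3H]spermidine for uptake into L1210 cells. Values are Ki, derived from Lineweaver–Burk analysis as competitive inhibition with respect to spermidine.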

L1210 cells [13] = assay: Polyamine pool analysis in L1210 cells; assay type: cell-based, murine; conditions: Mus musculus, L1210, 48 h, % of untreated control
Method in brief: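 Cells were exposed to each analogue for 48 h at two concentrations. Washed pellets were extracted with 0.6 N HClO4 (1 ml/10^7 cells), and polyamines were quantified by HPLC of dansyl derivatives.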

[14] = tested on: S-adenosylmethionine decarboxylase (AdoMetDC); assay: AdoMetDC activity in treated L1210 cells; assay type: cell-based, murine; conditions: L1210, 1 μM at 6 hours
Method in brief: as §3

L1210 cells [15] = assay: L1210 growth inhibition, IC50 determination; assay type: cell-based, murine; conditions: Mus musculus
Experimental: Murine L1210 leukemia cells (ATCC CCL 219) were maintained in logarithmic growth in RPMI-1640 medium containing 10% fetal calf serum or a semi-synthetic equivalent, NuSerum, 2% HEPES-MOPS buffer and 1 mM aminoguanidine.

laboratory animals = conditions: early studies in laboratory animals; cited from earlier work
[16] = tested on: spermidine/spermine acetyltransferase (SSAT); assay: SSAT activity in treated L1210 cells; assay type: cell-based, murine; conditions: L1210, 10 μM at 48 hours (triamine analogues)
Source text: Spermidine/spermine N^1-acetyltransferase activity was based on quantitation of [^14C]-N^1-acetylspermidine formed by acetylation of SPD with [^14C] acetyl coenzyme A according to the method of Libby et al [Biochem. Pharmacol., Vol. 38, supra]. Cells treated with DENSPM were positive controls.

[17] = L1210, 48 hour exposure, read-out: IC50 48 hour, corresponding tetraamine (in parentheses)
[18] = L1210, 96 hour exposure, read-out: IC50 96 hour, corresponding tetraamine (in parentheses)
[19] = female, CD-1, mouse, in vivo, 600 mg/kg

CCNCCCCNCCCCCNCCCCNCC [DE(4,5,4)]
Ki [1]: 6000 nM
Chronic LD50 (tetraamines) (mice [2]; mice, i.p. t.i.d. × 6 days): 0.104 mmol/kg/day
Chronic LD50 (tetraamines) (mice [2]; mouse, in vivo, ip): 48 mg/kg-day
IC50 (L1210 cells [3]; [17]): 300 nM
IC50 (L1210 cells [3]; [18]): 35 nM
LD50 at 2 h ([4]; mice, single dose i.p., scored two hours after dose, read-out: Acute LD50): 638 µmol/kg
Acute LD50 (mice [5]; mice, single dose i.p., scored two hours after dose, hydrochloride salts): 285 mg/kg
Put, corresponding tetraamine (in parentheses) (L1210 cells [6]; 0.3 μM): (44) %
Spd, corresponding tetraamine (in parentheses) (L1210 cells [6]; 0.3 μM): (61) %
Spm, corresponding tetraamine (in parentheses) (L1210 cells [6]; 0.3 μM): (70) %
Analogue, corresponding tetraamine (in parentheses) (L1210 cells [6]; 0.3 μM): (0.26) nmol/10^6 cells
SSAT activity, corresponding tetraamine (in parentheses) [7]: 120 (120) percent of untreated control
ODC activity, corresponding tetraamine (in parentheses) [8]: 20% of untreated control

CCNCCCNCCCCNCCCNCC [DESPM, N^1,N^12-diethylspermine]
Ki [1]: 1600 nM
IC50 (L1210 cells [3]; [17]): 30000 nM
IC50 (L1210 cells [3]; [18]): 180 nM
LD50 at 2 h [4]: 842 µmol/kg
Animals died within seven days (mice [5]; [19]): 5/5
Death within the initial 2 hours (mice [5]; [19]): no death
AdoMetDC activity, corresponding tetraamine (in parentheses) [9]: 28% of untreated control
Time at which reduction in AdoMetDC activity plateaued ([9]; previous studies): 6 h
SSAT activity, corresponding tetraamine (in parentheses) [7]: 460% of untreated control
Time at which reduction in ODC activity plateaued ([8]; previous studies): 4 h
SSAT up-regulation (SSAT): 250 fold

CCNCCCCNCCCCNCCCCNCC [DEHSPM, N^1,N^14-diethylhomospermine]
Ki [1]: 1400 nM
N-Monodealkylation (result in words) (L1210 cells [10]; 100 μM analogue): no N-deethylation
Parent drug as % of total drug in the cell (L1210 cells [10]; 100 μM analogue): 100%
Parent drug in L1210 cells (L1210 cells [10]; 100 μM analogue): 4215 pmols/10^6
IC50 (L1210 cells [3]; [17]): 200 nM
IC50 (L1210 cells [3]; [18]): 70 nM
Put, corresponding tetraamine (in parentheses) (L1210 cells [6]; 10 μM): (0) %
Spd, corresponding tetraamine (in parentheses) (L1210 cells [6]; 10 μM): (0) %
Spm, corresponding tetraamine (in parentheses) (L1210 cells [6]; 10 μM): (61) %
Analogue, corresponding tetraamine (in parentheses) (L1210 cells [6]; 10 μM): (2.94) nmol/10^6 cells
SSAT activity, corresponding tetraamine (in parentheses) [7]: 110% of untreated control
ODC activity, corresponding tetraamine (in parentheses) [8]: 7% of untreated control
SSAT up-regulation (SSAT): 30 fold

CCNCCCNCCCNCCCNCC [DENSPM, N^1,N^11-diethylnorspermine]
Ki [1]: 17000 nM
Ki relative to those of DESPM and DEHSPM ([1]; polyamine transport system): over 10 times
Parent drug as % of total drug in the cell (L1210 cells [10]; 500 μM analogue): 95.3%
Parent drug in L1210 cells (L1210 cells [10]; 500 μM analogue): 2440 pmols/10^6
IC50 (L1210 cells [3]; [17]): > 100000 nM
IC50 (L1210 cells [3]; [18]): 2000 nM
Put, corresponding tetraamine (in parentheses) (L1210 cells [6]; 10 μM): (30) %
Spd, corresponding tetraamine (in parentheses) (L1210 cells [6]; 10 μM): (14) %
Spm, corresponding tetraamine (in parentheses) (L1210 cells [6]; 10 μM): (31) %
Analogue, corresponding tetraamine (in parentheses) (L1210 cells [6]; 10 μM): (1.59) nmol/10^6 cells
Analogue, corresponding tetraamine (in parentheses) (L1210 cells [6]; 100 μM): (2.44) nmol/10^6 cells
AdoMetDC activity, corresponding tetraamine (in parentheses) [9]: 42% of untreated control
SSAT activity, corresponding tetraamine (in parentheses) [7]: 1500% of untreated control
SSAT up-regulation (SSAT): 1200 fold

NCCCCNCCCN [SPD, spermidine]
ODC activity, percent of untreated control [11]: 16% of untreated control
Ki [12]: 2200 nM
activity at 100 µM (L1210 cells [13]; read-out: Put): 0%
activity at 100 µM (L1210 cells [13]; read-out: Spd): 117%
activity at 100 µM (L1210 cells [13]; read-out: Spm): 118%
activity at 500 µM (L1210 cells [13]; read-out: Put): 0%
activity at 500 µM (L1210 cells [13]; read-out: Spd): 145%
activity at 500 µM (L1210 cells [13]; read-out: Spm): 108%
AdoMetDC activity, percent of untreated control [14]: 43% of untreated control
IC50 (L1210 cells [15]; L1210, 48 h, L1210, 48 hour exposure, read-out: IC50 48 hour): > 100000 nM
IC50 (L1210 cells [15]; L1210, 96 h, L1210, 96 hour exposure, read-out: IC50 96 hour): > 100000 nM
Nephrotoxicity relative to spermine (laboratory animals): approximately one-twentieth as nephrotoxic as spermine
SSAT activity, percent of untreated control [16]: 160% of untreated control
